Measured values: the supplement of paper PMC10307832

Columns and labels:
Experiment in all cases: relative viability (nuclei count vs DMSO), 5 days (fraction); higher = more cells survive
A549 = tested on: A549
Outline: (§1)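 Relative viability divides the nuclei count in treated wells by that in vehicle wells. Lung cancer cell lines were seeded in 1536-well plates, dosed by pin tool the next day, and fixed and stained after 5 days in one step with final 0.05% Triton X-100, 1% formaldehyde and 1 ug/ml Hoechst. Dosing was a single drug or a fixed anchor-drug dose plus five library-drug doses (not always all listed) in √10 steps, and values are medians of duplicate plates imaged at 4×.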

Calu-6 = tested on: Calu-6
Outline: as §1

EBC-1 = tested on: EBC-1
Outline: as §1

IA-LM = tested on: IA-LM
Outline: as §1

NCI-H1299 = tested on: NCI-H1299
Outline: as §1

NCI-H1563 = tested on: NCI-H1563
Outline: as §1

NCI-H1623 = tested on: NCI-H1623
Outline: as §1

NCI-H1703 = tested on: NCI-H1703
Outline: as §1

NCI-H2342 = tested on: NCI-H2342
Outline: as §1

SW 900 = tested on: SW 900
Outline: as §1

NCI-H1648 = tested on: NCI-H1648
Outline: as §1

NCI-H522 = tested on: NCI-H522
Outline: as §1

O=c1[nH]c2ccccc2n1C1CCN(CCCC(c2ccc(F)cc2)c2ccc(F)cc2)CC1 [Pimozide] + COc1cc2c(Oc3ccc(NC(=O)C4(C(=O)Nc5ccc(F)cc5)CC4)cc3F)ccnc2cc1OCCCN1CCOCC1 [Foretinib] (partner 0.25 µM)
relative viability (A549; first compound 0.08 µM): 0.891 | relative viability (A549; first compound 0.253 µM): 0.988 | relative viability (A549; first compound 0.8 µM): 1.04 | relative viability (A549; first compound 2.53 µM): 0.949 | relative viability (A549; first compound 8 µM): 0.728 | relative viability (Calu-6; first compound 0.08 µM): 0.887 | relative viability (Calu-6; first compound 0.253 µM): 0.925 | relative viability (Calu-6; first compound 0.8 µM): 0.819 | relative viability (Calu-6; first compound 2.53 µM): 0.914 | relative viability (Calu-6; first compound 8 µM): 0.822 | relative viability (EBC-1; first compound 0.08 µM): 0.0944 | relative viability (EBC-1; first compound 0.253 µM): 0.102 | relative viability (EBC-1; first compound 0.8 µM): 0.0973 | relative viability (EBC-1; first compound 2.53 µM): 0.104 | relative viability (EBC-1; first compound 8 µM): 0.12 | relative viability (IA-LM; first compound 0.08 µM): 1.16 | relative viability (IA-LM; first compound 0.253 µM): 1.15 | relative viability (IA-LM; first compound 0.8 µM): 1.16 | relative viability (IA-LM; first compound 2.53 µM): 1.19 | relative viability (IA-LM; first compound 8 µM): 1.17 | relative viability (NCI-H1299; first compound 0.08 µM): 1.11 | relative viability (NCI-H1299; first compound 0.253 µM): 1.12 | relative viability (NCI-H1299; first compound 0.8 µM): 1.07 | relative viability (NCI-H1299; first compound 2.53 µM): 1.07 | relative viability (NCI-H1299; first compound 8 µM): 1.04 | relative viability (NCI-H1563; first compound 0.08 µM): 0.969 | relative viability (NCI-H1563; first compound 0.253 µM): 0.849 | relative viability (NCI-H1563; first compound 0.8 µM): 0.832 | relative viability (NCI-H1563; first compound 2.53 µM): 0.877 | relative viability (NCI-H1563; first compound 8 µM): 0.832 | relative viability (NCI-H1623; first compound 0.08 µM): 0.505 | relative viability (NCI-H1623; first compound 0.253 µM): 0.879 | relative viability (NCI-H1623; first compound 0.8 µM): 0.81 | relative viability (NCI-H1623; first compound 2.53 µM): 0.88 | relative viability (NCI-H1623; first compound 8 µM): 0.889 | relative viability (NCI-H1703; first compound 0.08 µM): 0.394 | relative viability (NCI-H1703; first compound 0.253 µM): 0.272 | relative viability (NCI-H1703; first compound 0.8 µM): 0.375 | relative viability (NCI-H1703; first compound 2.53 µM): 0.37 | relative viability (NCI-H1703; first compound 8 µM): 0.336 | relative viability (NCI-H2342; first compound 0.08 µM): 0.92 | relative viability (NCI-H2342; first compound 0.253 µM): 0.973 | relative viability (NCI-H2342; first compound 0.8 µM): 0.931 | relative viability (NCI-H2342; first compound 2.53 µM): 0.975 | relative viability (NCI-H2342; first compound 8 µM): 1.07 | relative viability (SW 900; first compound 0.08 µM): 0.877 | relative viability (SW 900; first compound 0.253 µM): 0.956 | relative viability (SW 900; first compound 0.8 µM): 0.668 | relative viability (SW 900; first compound 2.53 µM): 0.746 | relative viability (SW 900; first compound 8 µM): 1.03

O=c1[nH]c2ccccc2n1C1CCN(CCCC(c2ccc(F)cc2)c2ccc(F)cc2)CC1 [Pimozide] + COc1cccc2cc(-c3nc([C@H]4CC[C@H](C(=O)O)CC4)n4ncnc(N)c34)[nH]c12 [OSI-027] (partner 0.5 µM)
relative viability (NCI-H1563; first compound 0.08 µM): 0.75 | relative viability (NCI-H1563; first compound 0.253 µM): 0.767 | relative viability (NCI-H1563; first compound 0.8 µM): 0.817 | relative viability (NCI-H1563; first compound 2.53 µM): 0.664 | relative viability (NCI-H1563; first compound 8 µM): 0.719 | relative viability (NCI-H1623; first compound 0.08 µM): 0.348 | relative viability (NCI-H1623; first compound 0.253 µM): 0.48 | relative viability (NCI-H1623; first compound 0.8 µM): 0.374 | relative viability (NCI-H1623; first compound 2.53 µM): 0.416 | relative viability (NCI-H1623; first compound 8 µM): 0.389 | relative viability (NCI-H1648; first compound 0.08 µM): 0.275 | relative viability (NCI-H1648; first compound 0.253 µM): 0.264 | relative viability (NCI-H1648; first compound 0.8 µM): 0.272 | relative viability (NCI-H1648; first compound 8 µM): 0.279 | relative viability (NCI-H2342; first compound 0.08 µM): 0.63 | relative viability (NCI-H2342; first compound 0.253 µM): 0.623 | relative viability (NCI-H2342; first compound 0.8 µM): 0.615 | relative viability (NCI-H2342; first compound 2.53 µM): 0.543 | relative viability (NCI-H2342; first compound 8 µM): 0.599 | relative viability (NCI-H522; first compound 0.08 µM): 0.682 | relative viability (NCI-H522; first compound 0.253 µM): 0.586 | relative viability (NCI-H522; first compound 0.8 µM): 0.54 | relative viability (NCI-H522; first compound 2.53 µM): 0.829 | relative viability (NCI-H522; first compound 8 µM): 0.682 | relative viability (SW 900; first compound 0.08 µM): 0.879 | relative viability (SW 900; first compound 0.253 µM): 0.581 | relative viability (SW 900; first compound 0.8 µM): 0.273 | relative viability (SW 900; first compound 2.53 µM): 0.475 | relative viability (SW 900; first compound 8 µM): 0.384

O=c1[nH]c2ccccc2n1C1CCN(CCCC(c2ccc(F)cc2)c2ccc(F)cc2)CC1 [Pimozide] + Cc1cc(Nc2cc(N3CCN(C)CC3)nc(Sc3ccc(NC(=O)C4CC4)cc3)n2)n[nH]1 [Tozasertib] (partner 0.1 µM)
relative viability (NCI-H1623; first compound 0.253 µM): 0.439 | relative viability (NCI-H1623; first compound 0.8 µM): 0.375 | relative viability (NCI-H1623; first compound 2.53 µM): 0.456 | relative viability (NCI-H1623; first compound 8 µM): 0.39 | relative viability (NCI-H1648; first compound 0.08 µM): 0.574 | relative viability (NCI-H1648; first compound 0.253 µM): 0.398 | relative viability (NCI-H1648; first compound 0.8 µM): 0.353 | relative viability (NCI-H1648; first compound 8 µM): 0.53 | relative viability (NCI-H2342; first compound 0.08 µM): 0.51 | relative viability (NCI-H2342; first compound 0.253 µM): 0.517 | relative viability (NCI-H2342; first compound 0.8 µM): 0.505 | relative viability (NCI-H2342; first compound 2.53 µM): 0.488 | relative viability (NCI-H2342; first compound 8 µM): 0.576 | relative viability (NCI-H522; first compound 0.08 µM): 0.509 | relative viability (NCI-H522; first compound 0.253 µM): 0.47 | relative viability (NCI-H522; first compound 0.8 µM): 0.573 | relative viability (NCI-H522; first compound 2.53 µM): 0.485 | relative viability (NCI-H522; first compound 8 µM): 0.525 | relative viability (SW 900; first compound 0.08 µM): 0.633 | relative viability (SW 900; first compound 0.253 µM): 0.606 | relative viability (SW 900; first compound 0.8 µM): 0.54 | relative viability (SW 900; first compound 2.53 µM): 0.618 | relative viability (SW 900; first compound 8 µM): 0.563
